Values quoted from earlier work, collected in patent US20190054044A1, “ORAL DOSAGE FORM OF BOTH CLOMIPHENE ISOMERS AND METHOD OF USING SAME TO TREAT SECONDARY HYPOGONADISM AND MINIMIZE DRUG SIDE EFFECTS IN MEN” (ASPEN PARK PHARMACEUTICALS, INC., priority 2016, published 2019).
Structures can show the parent of a compound that is named as a salt.

How the values were obtained:
[1] = baboons
[2] = commercial doses (25 mg PO daily or 50 mg PO every other day)
[3] = men

In the case of CCN(CC)CCOc1ccc(/C(=C(/Cl)c2ccccc2)c2ccccc2)cc1 [ENCLOMID], the total serum testosterone [1] is given as “significantly and statistically raised total serum testosterone”.

In the case of CCN(CC)CCOc1ccc(/C(=C(\Cl)c2ccccc2)c2ccccc2)cc1 (single isomer, unassigned) [cis-isomer of clomiphene], the LH secretion ([1]; range of doses tested) is given as “inhibited LH secretion” and the peripheral testosterone ([1]; range of doses tested) is given as “reduced peripheral testosterone towards castrate blood levels”.

In the case of CCN(CC)CCOc1ccc(/C(=C(/Cl)c2ccccc2)c2ccccc2)cc1 [ANDROXAL, trans clomiphene citrate], the “changes in visual acuity noted as an adverse event” value (clinical study) is listed as 0.2%, the “fatigue (side effect incidence)” value (clinical study) is listed as 2.8% and the “headache (side effect incidence)” value (clinical study) is listed as 6.6%. For the same molecule, the “muscle spasms (side effect incidence)” value (clinical study) was 4%, the “transient blurred vision (side effect incidence)” value (clinical study) was 1.4% and the “upper respiratory tract infections (side effect incidence)” value (clinical study, conducted during the cold, flu and allergy season) was 11.6%. For the same molecule, the “number of skeletal fractures” value (treated versus placebo subjects, clinical studies) was “Increase in number of skeletal fractures”.

In the case of CCN(CC)CCOc1ccc(C(=C(Cl)c2ccccc2)c2ccccc2)cc1 [CLOMID, clomiphene citrate], the bone mineral density [2] is listed as “decrease bone mineral density”, the risk of fractures [2] is listed as “increase the risk of fractures” and the “safety for long-term management of hypogonadism” value [3] is listed as “safe”. The T levels ([3]; long-term) was “raised T levels substantially” and the osteopenia/osteoporosis ([3]; long-term) was “improving osteopenia/osteoporosis”.
